Laboratory results taken from patent US12048695B2, “Immediate release pharmaceutical formulation of 4-[3-(4-cyclopropanecarbonyl-piperazine-1-carbonyl)-4-fluoro-benzyl]-2H-phthalazin-1-one” (KUDOS PHARMACEUTICALS LIMITED, priority 2008, dated 2024).
Converted amounts (≈) assume the structure as drawn. Read-outs that look alike come from different tables or passages of the source. One block for each compound: values may come before it.

Tests used:
[1] = Solubility in water and pH buffered solutions; type: physicochemical
Method: The solubility of crystalline Form A of Compound 1 was measured in water and a range of pH buffered solutions representing the physiological pH range. The physical form of any undissolved (or precipitated) Compound 1 was not assessed by XRPD after solubility determination. The Form A crystalline form of Compound 1 is disclosed in WO2008/047082.

[2] = Solubility in real and simulated gastrointestinal media; type: physicochemical; conditions: thermodynamic from solid; for solubility thermodynamic at 24 hr: read-out: Equilibrium solubility, 24 hr
Method: The solubility of Compound 1 was also measured in real and simulated gastrointestinal media (Table 2).

[3] = Permeability across Caco-2 monolayers; type: in vitro ADME; conditions: human, Caco-2; for efflux ratio / Papp A→B / Papp B→A: marker compound, concentration not given
Caco-2 monolayers = experiment: Permeability across Caco-2 monolayers; type: in vitro ADME
P-gp = experiment: Permeability across Caco-2 monolayers; type: in vitro ADME; conditions: human, Caco-2, 10 μM
pKa = type: physicochemical; conditions: phthalazinone moiety
Text: 4-[3-(4-cyclopropanecarbonyl-piperazine-1-carbonyl)-4-fluoro-benzyl]-2H-phthalazin-1-one (Compound 1) is a weakly acidic compound with a pKa of about 12.5 (phthalazinone moiety). It is essentially neutral across the physiological pH range.

[4] = In vitro dissolution of Compound 1 preparations (USP Apparatus I, TRIS buffer pH 7.2); type: physicochemical
Method: Dissolution was performed according to the general procedure of the United States Pharmacopeia Apparatus I (Basket). An amount of material containing approximately 100 mg of Compound 1 was weighed accurately then transferred to a dissolution vessel containing 500 mL of TRIS buffer (0.05M tris(hydroxymethyl)aminomethane solution adjusted to pH 7.2 with hydrochloric acid) maintained at 37° C. and stirred at 100 rpm. […] Compound 1 concentration in the filtrate was determined by ultraviolet spectroscopy at a wavelength of 278 nm.

SMILES: O=C(c1cc(Cc2n[nH]c(=O)c3ccccc23)ccc1F)N1CCN(C(=O)C2CC2)CC1 [Compound 1 (Form A), 4-[3-(4-cyclopropanecarbonyl-piperazine-1-carbonyl)-4-fluoro-benzyl]-2H-phthalazin-1-one]
- solubility at 1 hr ([1]; aqueous buffer, thermodynamic from solid, 0.1M NaOH, pH 12.5): 650 µg/mL (≈ 1500 µM)
- solubility at 24 hr ([1]; aqueous buffer, thermodynamic from solid, 0.1M NaOH, 24 hr, pH 12.4): 599 µg/mL (≈ 1380 µM)
- solubility at 1 hr ([1]; aqueous buffer, thermodynamic from solid, pH 3 Citrate Buffer, pH 2.9): 124 µg/mL (≈ 285 µM)
- solubility at 24 hr ([1]; aqueous buffer, thermodynamic from solid, pH 3 Citrate Buffer, 24 hr, pH 2.9): 112 µg/mL (≈ 258 µM)
- solubility at 1 hr ([1]; aqueous buffer, thermodynamic from solid, pH 6.8 Phosphate Buffer, pH 6.9): 111 µg/mL (≈ 255 µM)
- solubility at 24 hr ([1]; aqueous buffer, thermodynamic from solid, pH 6.8 Phosphate Buffer, 24 hr, pH 6.9): 96 µg/mL (≈ 221 µM)
- solubility at 1 hr ([1]; aqueous buffer, thermodynamic from solid, pH 9 Buffer, pH 8.9): 116 µg/mL (≈ 267 µM)
- solubility ([1]; pH 9 Buffer, 24 hr, pH 8.8): 102 µg/mL (≈ 235 µM)
- solubility at 1 hr ([1]; simulated gastric fluid, thermodynamic from solid, 0.1M HCl, pH 1.2): 128 µg/mL (≈ 295 µM)
- solubility at 24 hr ([1]; simulated gastric fluid, thermodynamic from solid, 0.1M HCl, 24 hr, pH 1.2): 114 µg/mL (≈ 262 µM)
- solubility at 1 hr ([1]; thermodynamic from solid, Water, pH 5.6): 124 µg/mL (≈ 285 µM)
- solubility at 24 hr ([1]; thermodynamic from solid, Water, 24 hr, pH 6.0): 109 µg/mL (≈ 251 µM)
- solubility thermodynamic at 24 hr ([2]; Fasted State Simulated Intestinal Fluid (FaSSIF), fassif): 130 µg/mL (≈ 299 µM)
- solubility thermodynamic at 24 hr ([2]; Fed State Simulated Intestinal Fluid (FeSSIF), fessif): 200 µg/mL (≈ 460 µM)
- solubility thermodynamic at 24 hr ([2]; Simulated Gastric Fluid (SGF), simulated gastric fluid): 120 µg/mL (≈ 276 µM)
- solubility thermodynamic at 24 hr ([2]; human, Human Gastric Fluid (HGF), plasma or biological fluid): 150 µg/mL (≈ 345 µM)
- solubility thermodynamic at 24 hr ([2]; human, Human Intestinal Fluid (HIF), plasma or biological fluid): 170 µg/mL (≈ 391 µM)

SMILES: C[C@H]1O[C@@H](O[C@H]2[C@@H](O)C[C@H](O[C@H]3[C@@H](O)C[C@H](O[C@H]4CC[C@@]5(C)[C@H](CC[C@@H]6[C@@H]5C[C@@H](O)[C@]5(C)[C@@H](C7=CC(=O)OC7)CC[C@]65O)C4)O[C@@H]3C)O[C@@H]2C)C[C@H](O)[C@@H]1O [Digoxin, digoxin, reference compound]
- efflux ratio [3]: 9.1
- Papp A→B ([3]; n = 3, ±S.D.): 1.34 ± 0.03 ×10⁻⁶ cm/s
- Papp B→A ([3]; n = 3, ±S.D.): 12.2 ± 1.37 ×10⁻⁶ cm/s

SMILES: CC(C)NCC(O)COc1cccc2ccccc12 (stereo not drawn) [Propranolol, propranolol, reference compound]
- efflux ratio [3]: 1.1
- Papp A→B ([3]; n = 3, ±S.D.): 20 ± 2.57 ×10⁻⁶ cm/s
- Papp B→A ([3]; n = 3, ±S.D.): 21.5 ± 0.33 ×10⁻⁶ cm/s

Other lines, results leading:

- solubility thermodynamic ([1]; aqueous buffer, thermodynamic from solid, range of aqueous buffers (pH 1-9), read-out: aqueous equilibrium solubility): ~100 µg/mL (≈ 230 µM)
- solubility ([2]; fed state simulated intestinal fluid, fessif, read-out: highest solubility): 200 µg/mL (≈ 460 µM)
- solubility at 24 hr ([2]; human, real and simulated gastrointestinal media, fassgf or other biorelevant): 120 to 200 µg/mL (≈ 276 to 460 µM)
- Papp at 10 μM [3]: 3.67 ×10⁻⁶ cm/s
- efflux ratio at 260 μM ([3]; 260 μM): 2.3
- Papp A→B at 260 μM ([3]; 260 μM, n = 3, ±S.D.): 7.75 ± 0.88 ×10⁻⁶ cm/s
- Papp B→A at 260 μM ([3]; 260 μM, n = 3, ±S.D.): 17.8 ± 1.19 ×10⁻⁶ cm/s
- efflux ratio at 700 μM ([3]; 700 μM): 1.8
- Papp A→B at 700 μM ([3]; 700 μM, n = 3, ±S.D.): 8.4 ± 0.41 ×10⁻⁶ cm/s
- Papp B→A at 700 μM ([3]; 700 μM, n = 3, ±S.D.): 15.1 ± 1.42 ×10⁻⁶ cm/s
- permeability (Caco-2 monolayers; compared to the high permeability marker propranolol): moderately permeable
- human Peff (Caco-2 monolayers; equated from Caco-2 Papp): 140 ×10⁻⁶ cm/s
- efflux by P-gp (Caco-2 monolayers; low concentrations (10 μM), inhibited by Elacridar): propensity for efflux by P-gp
- efflux ratio at 10 μM (P-gp): 6.5
- Papp A→B at 10 μM (P-gp; n = 3, ±S.D.): 3.67 ± 0.34 ×10⁻⁶ cm/s
- Papp B→A at 10 μM (P-gp; n = 3, ±S.D.): 23.7 ± 2.84 ×10⁻⁶ cm/s
- pKa (pKa): ~12.5
SMILES: O=C(c1cc(Cc2n[nH]c(=O)c3ccccc23)ccc1F)N1CCN(C(=O)C2CC2)CC1 [Compound 1, 4-[3-(4-cyclopropanecarbonyl-piperazine-1-carbonyl)-4-fluoro-benzyl]-2H-phthalazin-1-one]

- Dissolution (% Release) ([4]; 15 min): 15%
- Dissolution (% Release) ([4]; 30 min): 28%
- Dissolution (% Release) ([4]; 45 min): 43%
- Dissolution (% Release) ([4]; 60 min): 51%
- Dissolution (% Release) ([4]; 75 min): 58%
- Dissolution (% Release) ([4]; 90 min): 62%
- Dissolution (% Release) ([4]; 105 min): 68%
- Dissolution (% Release) ([4]; 120 min): 71%
SMILES: O=C(c1cc(Cc2n[nH]c(=O)c3ccccc23)ccc1F)N1CCN(C(=O)C2CC2)CC1 [Drug only]
